Assay results published in US9381195B2, “Derivatives of azaindazole or diazaindazole type for treating pain” (PIERRE FABRE MEDICAMENT, priority 2012, dated 2016).

How the values were obtained:
TrkA (or NTRK1) = target: T1, TrkA (or NTRK1) (Homo sapiens, UniProt P04629); assay: In vitro kinase glo plus-based kinase assay, TrkA; assay type: biochemical; conditions: comparative experiments; 30 μM ATP
T1 construct: using the soluble intracellular segment of theses receptors, containing the kinase activity; purchased Millipore
Experimental: (§1) Plates were removed from incubator, and 50 μl of kinase-glo plus was added to each well, followed by a 10 minute incubation at room temperature. The luciferase-induced luminescence, which is proportional to the ATP remaining in the well, was measured on a luminometer. Controls on each plates included wells with the kinase alone (maximal ATP consumption, or 0% inhibition), wells without the kinase (maximal ATP signal or 100% inhibition), and wells with 20 μM staurosporine (positive control of inhibition).

TrkB (or NTRK2) = target: T2, TrkB (or NTRK2) (Homo sapiens, UniProt Q16620); assay: In vitro kinase glo plus-based kinase assay, TrkB; assay type: biochemical; conditions: comparative experiments; 40 μM ATP
T2 construct: using the soluble intracellular segment of theses receptors, containing the kinase activity; purchased Invitrogen
Experimental: as §1, with “An in vitro kinase glo plus-based kinase assay (Promega) was developed in a 96 wells assay plate format to assess the inhibiting properties of compounds on tropomyosin related kinases (Trk) receptors, using the soluble intracellular segment of theses receptors, containing the kinase activity (TrkA (or NTRK1; 400 ng/well; […] Invitrogen)). […] Plates” for “Plates”, “inhibition). […] N=42; […]” for “inhibition).”

TrkA = target: T3, TrkA (Homo sapiens, UniProt P04629); assay: Test for measuring inhibition of TrkA kinase (Millipore or Kinome Scan, manufacturer's protocols); assay type: biochemical; conditions: read-out: Enzymatic inhibition at 10 nM (%) TrkA
T3 construct: purchased Millipore or Kinome Scan (DiscoverX)
Source text: (§2) Test for Measuring Inhibition of TrkA, TrkB or TrkC Kinase
(§3) These kinases are produced by Millipore or Kinome Scan (DiscoverX) and are screened according to the manufacturer's protocols.

TrkB = target: T4, TrkB (Homo sapiens, UniProt Q16620); assay: Test for measuring inhibition of TrkB kinase (Millipore or Kinome Scan, manufacturer's protocols); assay type: biochemical; conditions: read-out: Enzymatic inhibition at 10 nM (%) TrkB
T4 construct: purchased Millipore or Kinome Scan (DiscoverX)
Source text: as §2, §3

TrkC = target: T5, TrkC (Homo sapiens, UniProt Q16288); assay: Test for measuring inhibition of TrkC kinase (Millipore or Kinome Scan, manufacturer's protocols); assay type: biochemical; conditions: read-out: Enzymatic inhibition at 10 nM (%) TrkC
T5 construct: purchased Millipore or Kinome Scan (DiscoverX)
Source text: as §2, §3

NGF-induced hyperalgesia = assay: In vivo analgesic activity against NGF-induced hyperalgesia (hot plate); conditions: mouse; for inhibition of NGF-induced hyperalgesia (latency time): given 30 min before NGF, hot plate four hours after NGF
Experimental: In Vivo Analgesic Activity Against NGF-Induced Hyperalgesia Compounds of general formula (I), and particularly compound 30 have been tested in vivo in the mouse receiving an intraplantar injection of NGF. This treatment elicits thermal hyperalgesia (Schuligoi et al., 1998, Neuroscience Letters 252:147-149). Briefly, male mice received a 10 μl subcutaneous injection of NGFβ (1 μg; SIGMA) into the plantar surface of the right hind paw. Following the injection, mice were returned to their cages. Four hours after NGF injection, mice were placed on the centre of the hot plate analgesimeter (BIO-HC2.00, Bioseb, France), and the latency time to the first brisk lift or lick of a hind paw or jumping will be recorded. A maximum cut-off time of 60 sec is used to prevent tissue damage. Results are given as the mean±s.e.m. of the latency time. Test compounds were given 30 min before NGF injection.

[1] = test system: formalin test (paw licking); assay: In vivo analgesic activity in the formalin test; parameters: species or system rat; conditions: rats, second phase of the formalin test, vs. vehicle-treated animals, P<0.05
Source text: In Vivo Analgesic Activity in the Formalin Test in Rats The method was adapted from Wheeler-Aceto et al. (Pain, 1990, 40:229-38) and Bardin et al. (2003, Pharmacology 67: 182-194). In the second phase of the test, Compound 30 inhibited paw licking by 44% vs. vehicle-treated animals (P<0.05 by ANOVA).

[2] = test system: inflammatory pain induced by Complete Freund Adjuvant (CFA); assay: In vivo analgesic activity against acute and chronic inflammatory pain induced by Complete Freund Adjuvant (CFA); conditions: rat
Source text: In Vivo Analgesic Activity Against Acute and Chronic Inflammatory Pain Induced by Complete Freund Adjuvant (CFA)
Male Sprague-Dawley rats [Crl:OFA(SD) Charles River Lyon, France] weighing 160-180 g upon arrival were used. Rats were first daily habituated to handling and to the test apparatus used for the von-Frey and hot-plate models one week before the induction of inflammation. On the following Monday, they were subjected to nociceptive tests for determination of basal scores. Then, rats will be given a 100 μl subcutaneous injection of CFA (1 mg/1 ml; Sigma) into the plantar surface of the right hind paw (day 0: D0). Saline was injected by the same route in the placebo group.
Then each rat was placed on an elevated plastic mesh in a clear plastic cage and the number of spontaneous flinches (measurement of spontaneous pain) was recorded during 10 min. Mechanical allodynia was assessed using the von Frey Hair test. Each rat was placed on an elevated plastic mesh in a clear plastic cage and allowed to adapt to the testing environment for at least 5 min. The von Frey Hairs (Semmes-Weinstein monofilaments, Stoelting Ill., USA; 0.6, 1.4, 2, 4, 6, 8, 10, and 15 g) was applied to the plantar surface of the injected paw from below the mesh floor for […] in the ascending order. The threshold was determined as the lowest force that evoked a withdrawal response. The test was repeated three times with an interval of 5 min between each test. The paw withdrawal score to the tactile stimulus was determined as the average of the 3 measurements. Animals received intraperitoneal or oral injections of test compounds. […] Compound completely or nearly completely reversed spontaneous pain from 0.16 mg/kg and mechanical allodynia from 2.5 mg/kg.

bone cancer pain = assay: In vivo analgesic activity against chronic pain in a model of bone cancer pain (NCTC 2472 fibrosarcoma cells in tibia); parameters: species or system mouse; conditions: C3H/HeNCrl mice
Experimental: In Vivo Analgesic Activity Against Chronic Pain in a Model of Bone Cancer Pain
Bone cancer produces one of the most painful conditions that affect humans and animals. […] Several models of murine osteosarcoma-induced pain have been developed (Pacharinsak and Beitz, Animal models of cancer pain. Comp Med. 2008 June; 58:220-33.).
We induced bone cancer pain by implanting 10 μl of PBS containing 2×10^5 NCTC 2472 osteolytic fibrosarcoma cells into the tibia of 5-6 week-old C3H/HeNCrl mice under isoflurane anesthesia. The presence of these cells induces osteolytic lesions in bone due to both an increase in the number of osteoclasts and to their activation, which leads to the destruction of bone tissue and the invasion of the adjacent soft tissue and pain related behaviours. Pain-related behaviours were evaluated both prior to and at 3, 7, 10, 14 and 17 days following tumor cell injection. The following behaviors were evaluated: • Limb use during spontaneous ambulation on a scale of 0-4 where 0=normal use and 4=no use of the injected hind paw; • Light touch-evoked pain. Light touch induced flinching were measured after the 1 min period of non noxious stimulation of the tumor injected paw with a small paint brush. The numbers of flinches were recorded over 5 min. […]

T5 sequence (Q16288 32-839): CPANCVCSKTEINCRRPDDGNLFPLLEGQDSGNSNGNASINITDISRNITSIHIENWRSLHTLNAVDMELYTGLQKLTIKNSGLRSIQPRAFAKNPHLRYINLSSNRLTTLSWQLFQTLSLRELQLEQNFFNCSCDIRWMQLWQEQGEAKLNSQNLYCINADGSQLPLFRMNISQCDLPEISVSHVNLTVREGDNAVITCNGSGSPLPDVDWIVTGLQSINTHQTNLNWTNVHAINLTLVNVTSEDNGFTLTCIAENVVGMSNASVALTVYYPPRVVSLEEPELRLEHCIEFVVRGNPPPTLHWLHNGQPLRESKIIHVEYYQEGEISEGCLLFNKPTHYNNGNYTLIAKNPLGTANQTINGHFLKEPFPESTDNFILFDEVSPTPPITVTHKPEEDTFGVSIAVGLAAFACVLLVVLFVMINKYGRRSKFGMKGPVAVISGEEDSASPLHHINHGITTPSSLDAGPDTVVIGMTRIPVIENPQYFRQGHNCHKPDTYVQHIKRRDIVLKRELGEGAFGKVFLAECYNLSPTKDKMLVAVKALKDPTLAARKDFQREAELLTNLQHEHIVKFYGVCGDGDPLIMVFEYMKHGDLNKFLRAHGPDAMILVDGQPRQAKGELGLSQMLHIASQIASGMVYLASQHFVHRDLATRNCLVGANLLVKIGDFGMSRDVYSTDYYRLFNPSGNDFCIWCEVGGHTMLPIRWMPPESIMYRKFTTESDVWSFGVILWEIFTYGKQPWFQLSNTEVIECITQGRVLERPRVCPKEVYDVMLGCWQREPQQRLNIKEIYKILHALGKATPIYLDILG
T2 sequence (Q16620 455-822 limits assumed): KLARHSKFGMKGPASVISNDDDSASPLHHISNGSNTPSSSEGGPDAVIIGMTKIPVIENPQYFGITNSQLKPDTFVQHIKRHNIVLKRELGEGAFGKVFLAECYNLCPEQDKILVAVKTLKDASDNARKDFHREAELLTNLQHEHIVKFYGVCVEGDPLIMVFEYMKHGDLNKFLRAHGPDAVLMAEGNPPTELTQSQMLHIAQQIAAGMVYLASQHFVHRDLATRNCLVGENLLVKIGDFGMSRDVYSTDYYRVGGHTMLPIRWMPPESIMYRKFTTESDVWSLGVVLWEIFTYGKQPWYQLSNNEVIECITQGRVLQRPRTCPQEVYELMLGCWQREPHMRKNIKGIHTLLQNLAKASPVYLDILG
T4 sequence (Q16620 32-822): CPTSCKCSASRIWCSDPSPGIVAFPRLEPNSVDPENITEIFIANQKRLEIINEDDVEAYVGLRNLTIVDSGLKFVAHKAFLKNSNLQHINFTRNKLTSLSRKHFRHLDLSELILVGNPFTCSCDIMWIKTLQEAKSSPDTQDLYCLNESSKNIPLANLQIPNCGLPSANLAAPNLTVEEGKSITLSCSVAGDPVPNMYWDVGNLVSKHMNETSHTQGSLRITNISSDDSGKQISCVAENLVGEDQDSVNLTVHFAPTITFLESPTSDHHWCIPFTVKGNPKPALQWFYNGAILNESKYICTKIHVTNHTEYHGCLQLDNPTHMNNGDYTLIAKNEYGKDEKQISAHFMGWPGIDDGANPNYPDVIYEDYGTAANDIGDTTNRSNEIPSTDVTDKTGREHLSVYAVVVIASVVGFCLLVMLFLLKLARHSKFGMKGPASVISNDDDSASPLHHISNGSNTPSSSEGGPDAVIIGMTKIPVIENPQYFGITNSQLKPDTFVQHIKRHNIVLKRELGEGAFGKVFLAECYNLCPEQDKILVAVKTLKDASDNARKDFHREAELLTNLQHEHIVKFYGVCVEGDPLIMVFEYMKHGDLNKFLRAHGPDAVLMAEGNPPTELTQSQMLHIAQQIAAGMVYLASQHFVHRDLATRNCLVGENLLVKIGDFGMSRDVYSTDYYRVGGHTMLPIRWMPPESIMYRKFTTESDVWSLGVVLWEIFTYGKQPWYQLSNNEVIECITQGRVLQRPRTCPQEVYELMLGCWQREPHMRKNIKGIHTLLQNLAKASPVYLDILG
T3 sequence (P04629 33-796): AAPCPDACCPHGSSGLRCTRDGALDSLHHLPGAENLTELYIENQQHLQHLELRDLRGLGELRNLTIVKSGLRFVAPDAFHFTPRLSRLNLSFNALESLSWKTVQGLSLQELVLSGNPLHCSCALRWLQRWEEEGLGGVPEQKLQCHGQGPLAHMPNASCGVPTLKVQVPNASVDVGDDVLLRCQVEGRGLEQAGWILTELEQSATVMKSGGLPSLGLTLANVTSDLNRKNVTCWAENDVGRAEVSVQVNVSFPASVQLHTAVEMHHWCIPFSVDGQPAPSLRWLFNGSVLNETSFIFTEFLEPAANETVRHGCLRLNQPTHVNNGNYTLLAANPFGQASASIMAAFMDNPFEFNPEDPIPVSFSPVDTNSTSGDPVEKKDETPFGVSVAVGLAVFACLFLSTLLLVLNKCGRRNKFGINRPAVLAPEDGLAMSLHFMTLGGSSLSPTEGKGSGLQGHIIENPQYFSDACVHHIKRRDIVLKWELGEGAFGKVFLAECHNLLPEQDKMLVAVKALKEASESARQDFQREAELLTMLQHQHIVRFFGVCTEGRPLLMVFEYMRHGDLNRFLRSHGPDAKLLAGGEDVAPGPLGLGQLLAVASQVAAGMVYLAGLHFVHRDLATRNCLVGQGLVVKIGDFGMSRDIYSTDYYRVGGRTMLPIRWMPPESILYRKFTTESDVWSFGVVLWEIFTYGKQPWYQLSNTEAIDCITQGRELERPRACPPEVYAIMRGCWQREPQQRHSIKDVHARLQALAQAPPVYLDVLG
T1 sequence (P04629 440-796 limits assumed): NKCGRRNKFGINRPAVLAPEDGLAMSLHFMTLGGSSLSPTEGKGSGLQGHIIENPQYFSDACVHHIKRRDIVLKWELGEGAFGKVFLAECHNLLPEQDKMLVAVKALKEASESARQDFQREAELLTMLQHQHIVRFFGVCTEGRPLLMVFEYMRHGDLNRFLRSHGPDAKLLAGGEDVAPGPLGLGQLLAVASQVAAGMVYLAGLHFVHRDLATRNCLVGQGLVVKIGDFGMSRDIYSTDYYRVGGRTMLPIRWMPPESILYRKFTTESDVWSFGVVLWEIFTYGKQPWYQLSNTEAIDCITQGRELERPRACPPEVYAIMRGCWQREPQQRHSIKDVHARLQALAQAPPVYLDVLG

SMILES | IC50 (TrkA (or NTRK1)) | IC50 (TrkB (or NTRK2)) | inhibition at 0.01 µM (TrkA) | inhibition at 0.01 µM (TrkB) | inhibition at 0.01 µM (TrkC) | also measured
CN1CCN(c2ccc(C(=O)Nc3n[nH]c4nc(Nc5cc(F)cc(F)c5)ncc34)c(NC3CCOCC3)c2)CC1 [A] | ~10 µM | > 100 µM |  |  |  | 
CN1CCN(c2ccc(C(=O)Nc3n[nH]c4nc(Nc5ccc(F)cc5F)ncc34)c(NC3CCOCC3)c2)CC1 [B] | 3.3 µM | 18 µM |  |  |  | 
CN1CCN(c2ccc(C(=O)Nc3n[nH]c4nc(Nc5ccc(F)cc5F)ccc34)c(NC3CCOCC3)c2)CC1 [C] | 2.1 µM | 5.8 µM |  |  |  | 
CN1CCN(c2ccc(C(=O)Nc3n[nH]c4nc(N)c(Sc5cc(F)cc(F)c5)cc34)c(NC3CCOCC3)c2)CC1 [Compound 14-11, N-(6-amino-5-(3,5-difluorophenylthio)-1H-pyrazolo[3,4-b]pyridin-3-yl)-4-(4-methylpiperazin-1-yl)-2-(tetrahydro-2H-pyran-4-ylamino)benzamide] |  |  | 97.4% | 88% | 93.4% | 
CN1CCN(c2ccc(C(=O)Nc3n[nH]c4ncc(S(=O)(=O)c5cc(F)cc(F)c5)cc34)c(NC3CCOCC3)c2)CC1 [Compound 27-1, N-(5-(3,5-difluorophenylsulfonyl)-1H-pyrazolo[3,4-b]pyridin-3-yl)-4-(4-methylpiperazin-1-yl)-2-(tetrahydro-2H-pyran-4-ylamino)benzamide] |  |  | 97.8% | 93% | 96.8% | 
CN1CCN(c2ccc(C(=O)Nc3n[nH]c4ncc(Sc5cc(F)cc(F)c5)cc34)c(NC3CCOCC3)c2)CC1 [Compound 30, N-(5-(3,5-difluorophenylthio)-1-H-pyrazolo[3,4-b]pyridine-3-yl)-4-(4-methylpiperazine-1-yl)-2-(tetrahydro-2H-pyran-4-ylamino)benzamide] | 0.045 µM | 0.031 µM | 93.8% | 84% | 64% | doses at which complete or nearly complete reversion of NGF-induced hyperalgesia occurred (NGF-induced hyperalgesia; intraperitoneal or oral route, P<0.05 vs NGF alone): ≤ 10 mg/kg; inhibition of NGF-induced hyperalgesia (latency time) (NGF-induced hyperalgesia; intraperitoneal route, FIG. 1A): dose-dependently inhibited; inhibition of NGF-induced hyperalgesia (latency time) (NGF-induced hyperalgesia; oral route, FIG. 1B): dose-dependently inhibited; inhibition of paw licking [1]: 44%; dose from which spontaneous pain was completely or nearly completely reversed ([2]; flinches): ≥ 0.16 mg/kg; inhibition of spontaneous flinches (acute inflammatory pain) ([2]; intraperitoneal injection, FIG. 2A): dose-dependently inhibited; inhibition of mechanical allodynia (von Frey) ([2]; oral administration, FIG. 2B): dose-dependently inhibited; dose from which mechanical allodynia was completely or nearly completely reversed ([2]; von Frey): ≥ 2.5 mg/kg; light touch-evoked flinching (bone cancer pain; 2.5 mg/kg i.p. chronically from day 7, effect from day 8, FIG. 3B): significantly reduced; limb use score (bone cancer pain; 2.5 mg/kg i.p. chronically from day 7, effect from day 10, FIG. 3A): significantly reduced
CN1CCN(c2ccc(C(=O)Nc3n[nH]c4ncc(S(=O)(=O)Nc5cc(F)cc(F)c5)cc34)c(NC3CCOCC3)c2)CC1 [Compound 30-8, N-(5-(N-(3,5-difluorophenyl)sulfamoyl)-1H-pyrazolo[3,4-b]pyridin-3-yl)-4-(4-methylpiperazin-1-yl)-2-(tetrahydro-2H-pyran-4-ylamino)benzamide] |  |  | 99% | 96.6% | 97.3% | 
CN1CCN(c2ccc(C(=O)Nc3n[nH]c4ncc(Cc5cc(F)cc(F)c5)cc34)c(NC3CCOCC3)c2)CC1 [Compound 30-9, N-(5-(3,5-difluorobenzyl)-1H-pyrazolo[3,4-b]pyridin-3-yl)-4-(4-methylpiperazin-1-yl)-2-(tetrahydro-2H-pyran-4-ylamino)benzamide] |  |  | 55% | 98% |  | 
Nc1n[nH]c2ncc(Sc3cc(F)cc(F)c3)cc12 [D] | 22 µM | 35 µM |  |  |  | 
